# Reference: article PMC3361616 (European Journal of Medicinal Chemistry, 2012)
# Where a name gives a salt, the structure may show the parent alone.
# Experiments:
# [1] = target: serotonin transporter (SERT) (Homo sapiens, UniProt P31645); assay: NIMH-PDSP radioligand binding, SERT
# D4 receptor (DAD4) = target: T1, D4 receptor (DAD4) (Homo sapiens, UniProt P21917); assay: NIMH-PDSP radioligand binding, DAD4
# T1 sequence (P21917 1-419): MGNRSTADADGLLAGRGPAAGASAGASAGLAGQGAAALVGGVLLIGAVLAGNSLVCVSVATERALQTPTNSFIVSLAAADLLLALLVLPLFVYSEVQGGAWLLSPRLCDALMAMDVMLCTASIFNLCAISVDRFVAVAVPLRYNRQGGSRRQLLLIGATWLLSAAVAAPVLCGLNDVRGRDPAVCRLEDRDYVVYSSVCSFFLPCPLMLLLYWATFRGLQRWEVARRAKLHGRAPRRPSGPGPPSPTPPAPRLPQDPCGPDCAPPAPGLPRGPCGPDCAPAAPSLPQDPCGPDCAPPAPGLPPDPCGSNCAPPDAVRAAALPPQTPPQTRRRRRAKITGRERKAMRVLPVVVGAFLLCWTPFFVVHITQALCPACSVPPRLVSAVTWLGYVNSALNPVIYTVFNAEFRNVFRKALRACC
# 5HT1A receptor = target: T2, 5HT1A receptor (Homo sapiens, UniProt P08908); assay: NIMH-PDSP radioligand binding, 5HT1A; conditions: for fold increase in binding affinity to the 5HT1A receptor: over compound 8
# T2 sequence (P08908 1-422): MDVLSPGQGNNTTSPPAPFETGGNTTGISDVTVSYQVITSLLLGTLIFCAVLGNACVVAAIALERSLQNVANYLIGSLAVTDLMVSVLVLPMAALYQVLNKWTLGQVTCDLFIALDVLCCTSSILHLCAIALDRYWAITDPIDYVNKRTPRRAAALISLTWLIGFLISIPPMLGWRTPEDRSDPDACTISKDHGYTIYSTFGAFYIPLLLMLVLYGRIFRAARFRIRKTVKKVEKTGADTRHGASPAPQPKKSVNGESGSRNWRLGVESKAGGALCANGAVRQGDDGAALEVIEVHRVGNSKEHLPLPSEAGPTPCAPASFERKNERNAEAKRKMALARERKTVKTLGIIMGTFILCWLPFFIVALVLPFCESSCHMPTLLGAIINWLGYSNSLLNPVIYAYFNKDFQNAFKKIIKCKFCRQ
# serotonin transporter (SERT), sequence (P31645 whole entry, species assumed): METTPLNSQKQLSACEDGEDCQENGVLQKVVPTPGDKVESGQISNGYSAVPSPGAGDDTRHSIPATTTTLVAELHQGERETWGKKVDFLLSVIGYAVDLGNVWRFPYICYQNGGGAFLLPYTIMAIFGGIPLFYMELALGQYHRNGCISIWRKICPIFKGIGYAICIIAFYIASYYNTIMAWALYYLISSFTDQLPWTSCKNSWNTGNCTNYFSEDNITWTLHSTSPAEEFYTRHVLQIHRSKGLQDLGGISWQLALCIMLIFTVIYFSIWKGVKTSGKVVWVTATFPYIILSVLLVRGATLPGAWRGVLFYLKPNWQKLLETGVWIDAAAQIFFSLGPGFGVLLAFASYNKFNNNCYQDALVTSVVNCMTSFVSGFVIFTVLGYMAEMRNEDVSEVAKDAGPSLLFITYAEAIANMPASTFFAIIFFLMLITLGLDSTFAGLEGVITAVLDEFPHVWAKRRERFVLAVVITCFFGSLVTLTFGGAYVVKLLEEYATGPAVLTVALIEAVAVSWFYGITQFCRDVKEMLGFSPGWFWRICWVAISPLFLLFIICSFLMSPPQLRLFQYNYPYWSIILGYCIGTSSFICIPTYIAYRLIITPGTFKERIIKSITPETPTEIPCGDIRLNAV
compound,measurement,setting,value
"O=C(CCCCN1CCN(c2ccc(Cl)cc2)CC1)c1nc2ccccc2s1 [Compound 20, 1-(Benzo[d]thiazol-2-yl)-5-(4-(4-chlorophenyl)piperazin-1-yl)pentan-1-one hydrochloride]",fold enhancement of binding to SERT,[1]; compared with compound 8,over 2 fold
same,Ki,D4 receptor (DAD4),100 ± 10 nM
same,fold increase in binding affinity to the 5HT1A receptor,5HT1A receptor,over 3 fold
"Clc1ccc(N2CCN(CCCCc3nc4ccccc4s3)CC2)cc1 [Compound 8, 2-(4-(4-(4-Chlorophenyl)piperazin-1-yl)butyl)benzo[d]thiazole]",fold decrease in binding at the SERT site,[1]; compared with compound 4,2.6 fold
same,fold increase in binding to the 5HT1A receptor,5HT1A receptor; compared with compound 4,~3 fold
"c1ccc2c(c1)CCN(CCCCc1nc3ccccc3s1)C2 [Compound 11, 2-(4-Benzo[d]thiazol-2-yl-butyl)-1,2,3,4-tetrahydro-isoquinoline p-toluenesulfonate]",fold increase in binding affinity to the 5HT1A receptor,5HT1A receptor,about 18 fold
"O=C(CCCCN1CCC(c2ccccc2)CC1)c1nc2ccccc2s1 [Compound 23, 1-(Benzo[d]thiazol-2-yl)-5-(4-phenyl-piperidin-1-yl)-pentan-1-one hydrochloride]",fold decrease in binding affinity at the 5HT1A receptor,5HT1A receptor; compared with compound 22,2 fold
